From patent US11046949B2, “Method and system for microbial lysis using periodates” (priority 2014, dated 2021)
Where “and” joins values, the source holds several entries; their conditions need not be identical. Equal entries are not always repeated. Where two headings read alike, the source gives them in different places.

Assays:
[1] = tested on: Mycobacteria; test: Release of DNA from Mycobacteria by solvents, detergents, formic acid, borate; type: cell-based, Mycobacterium; details: solvents to strip waxy cell wall component
Experimental: The hardy cell wall of Mycobacterium consists of a thick, waxy, hydrophobic, mycolate layer and a peptidoglycan layer held together by polysaccharide. […] Similarly, various detergents (e.g., SDS), formic acid, and borate were tested at elevated temperatures.

[2] = tested on: Bacillus subtilis vegetative cells; test: DNA release from B. subtilis by per-halogenated and oxidizing compounds, Acid-Hydrolysis HPLC Method; type: cell-based; details: 70° C. 20 minutes; for % DNA release / AUC, Ade: 15 mM compound in BD buffer, samples 1-3; for % DNA release (Average) / AUC, Ade (Average): 15 mM compound, average of 3
[3] = tested on: Y. enterocolitica; type: cell-based, Yersinia enterocolitica; details: BD2 buffer
[4] = tested on: B. thuringiensis; type: cell-based, Bacillus thuringiensis; details: periodate +, BD2 buffer
[5] = tested on: K. pneumonia; type: cell-based, Klebsiella pneumonia; details: BD2 buffer
[6] = tested on: S. aureus; type: cell-based, Staphylococcus aureus; details: periodate +, BD2 buffer
[7] = tested on: P. aeruginosa; type: cell-based, Pseudomonas aeruginosa; details: BD2 buffer
[8] = target: Pancreatic Ribonuclease A (Bos taurus, UniProt P61823); test: Pure pancreatic ribonuclease A treated with periodate, SDS-PAGE; details: 15 mM periodate, 70° C. 15 minutes, FIG. 12
[9] = tested on: Y. enterocolitica; type: cell-based, Yersinia enterocolitica; details: periodate +, BD2 buffer
[10] = tested on: M. catarrhalis; type: cell-based, Moraxella catarrhalis; details: BD2 buffer
[11] = tested on: C. albicans; type: cell-based, Candida albicans; details: BD2 buffer
[12] = tested on: M. tuberculosis in TB-positive sputum; test: TB-positive sputum, qPCR targeting RD4 MTBC region of difference; type: cell-based, Mycobacterium tuberculosis
[13] = tested on: attenuated MTB H37Ra (aMTB) spiked in sputum; test: DNA isolated from aMTB-spiked sputum using swabs and periodate, RD4 rtPCR
[14] = tested on: M. smegmatis; type: cell-based, Mycobacterium smegmatis; details: BD2 buffer
[15] = tested on: Mycobacterium smegmatis; test: NPI-mediated release of DNA from M. smegmatis as a function of pH, Acid-Extraction HPLC Method
[16] = tested on: C. albicans; details: periodate +, BD2 buffer
[17] = tested on: P. aeruginosa; type: cell-based, Pseudomonas aeruginosa; details: periodate +, BD2 buffer
[18] = tested on: C. difficile spores; type: cell-based, Clostridium difficile
[19] = tested on: F. philomiragia; type: cell-based, Francisella philomiragia; details: BD2 buffer
[20] = target: pancreatic ribonuclease A (RNase A) (Bos taurus, UniProt P61823); test: Inhibition of RNase A by pre-treatment with periodate, HeLa RNA integrity on agarose gel; details: RNase A pre-incubated with 15 mM periodate, 70° C. 15 minutes, FIG. 14
[21] = tested on: C. botulinum Type B spores; type: cell-based, Clostridium botulinum; details: Post-Periodate: BD2 buffer, 30 mM NPI, 70° C. 20 minutes, FIG. 16
[22] = tested on: K. pneumonia; type: cell-based, Klebsiella pneumonia; details: periodate +, BD2 buffer
[23] = tested on: attenuated M. tuberculosis (aMTB) spiked in saliva; type: cell-based, Mycobacterium tuberculosis
[24] = tested on: F. philomiragia; type: cell-based, Francisella philomiragia; details: periodate +, BD2 buffer
[25] = tested on: B. thuringiensis; type: cell-based, Bacillus thuringiensis; details: BD2 buffer
[26] = tested on: M. smegmatis; type: cell-based, Mycobacterium smegmatis; details: periodate +, BD2 buffer
[27] = tested on: M. catarrhalis; type: cell-based, Moraxella catarrhalis; details: periodate +, BD2 buffer
[28] = tested on: Mycobacterium smegmatis lysate proteins; test: M. smegmatis lysate treated with periodate, SDS-PAGE; details: 7.5 and 15 mM periodate, 70° C. 15 minutes, FIG. 13
[29] = tested on: B. anthracis Sterne Strain spores; type: cell-based, Bacillus anthracis; details: Post-Periodate: BD2 buffer, 30 mM NPI, 70° C. 20 minutes, FIG. 15
[30] = tested on: S. aureus; type: cell-based, Staphylococcus aureus; details: BD2 buffer

Chain of Pancreatic Ribonuclease A (P61823 27-150): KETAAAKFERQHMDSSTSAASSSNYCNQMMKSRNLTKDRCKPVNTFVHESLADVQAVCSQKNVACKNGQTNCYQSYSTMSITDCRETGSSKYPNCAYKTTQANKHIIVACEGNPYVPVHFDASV
Chain of pancreatic ribonuclease A (RNase A) (P61823 27-150): as above

C[S+](C)[O-] [DMSO]
release of DNA [1]: no increased release of DNA was observed

O.O.O.O.[Na+].[O-]B1OO1 [Perborate, sodium perborate tetrahydrate, reference compound]
% DNA release [2]: 5.5% and 6.3% and 6.4%
AUC, Ade [2]: 70 and 80 and 82
% DNA release (Average) [2]: 6.1%
AUC, Ade (Average) [2]: 77.3

[Na+].[O-][Cl+3]([O-])([O-])[O-] [Perchlorate, sodium perchlorate, reference compound]
% DNA release [2]: 6.2% and 6.7% and 6.4%
AUC, Ade [2]: 79 and 85 and 81
% DNA release (Average) [2]: 6.4%
AUC, Ade (Average) [2]: 81.7

[O-][I+3]([O-])([O-])O [Periodate, sodium (meta)periodate]
% DNA Released ([3]; 35° C. 20 minutes): 52.1%
% DNA Released ([3]; 70° C. 20 minutes): 80.8%
% DNA Released ([3]; 80° C. 20 minutes): 89.5%
Ct values ([4]; 35° C. 20 minutes): 15.5
Ct values ([4]; 70° C. 20 minutes): 10.3
Ct values ([4]; 80° C. 20 minutes): 10.8
% DNA Released ([5]; 35° C. 20 minutes): 49.0%
% DNA Released ([5]; 70° C. 20 minutes): 119.2%
% DNA Released ([5]; 80° C. 20 minutes): 124.4%
Ct values ([6]; 35° C. 20 minutes): 15.5
Ct values ([6]; 70° C. 20 minutes): 13.7
Ct values ([6]; 80° C. 20 minutes): 15.0
% DNA Released ([7]; 35° C. 20 minutes): 38.6%
% DNA Released ([7]; 70° C. 20 minutes): 117.8%
% DNA Released ([7]; 80° C. 20 minutes): 98.2%
quantity of full-length purified RNase protein [8]: decreased
Ct values ([9]; 35° C. 20 minutes): 15.5
Ct values ([9]; 70° C. 20 minutes): 12.0
Ct values ([9]; 80° C. 20 minutes): 11.4
% DNA Released ([10]; 35° C. 20 minutes): 77.1%
% DNA Released ([10]; 70° C. 20 minutes): 143.6%
% DNA Released ([10]; 80° C. 20 minutes): 140.5%
% DNA Released ([11]; 35° C. 20 minutes): 105.4%
% DNA Released ([11]; 70° C. 20 minutes): 155.3%
% DNA Released ([11]; 80° C. 20 minutes): 156.4%
Real-time PCR Ct value (in duplicate) [12]: 32/32 and 41/33 and 23/23 and 33/33 and 19/19 and 24/25
Periodate efficiency (Ct Swab 6 (−) Ct average) ([13]; 1:10 dilution of DNA, Copan): 3.78
Periodate efficiency (Ct Swab 6 (−) Ct average) ([13]; 1:10 dilution of DNA, Puritan): 5.72
Ct value (1:10 dilution of DNA) Copan, Average ([13]; (+) periodate): 27.55
Ct value (1:10 dilution of DNA) Puritan, Average ([13]; (+) periodate): 27.11
Ct value (neat DNA) Copan, Average ([13]; (+) periodate): 24.02
Ct value (neat DNA) Puritan, Average ([13]; (+) periodate): 23.69
Ct value (1:10 dilution of DNA) Copan ([13]; (+) periodate 30 mM, Swabs 1-5): 26.49 and 28.11 and 29.12 and 33.99 and 26.47
Ct value (1:10 dilution of DNA) Puritan ([13]; (+) periodate 30 mM, Swabs 1-5): 26.24 and 27.74 and 26.60 and 27.29 and 27.67
Ct value (neat DNA) Copan ([13]; (+) periodate 30 mM, Swabs 1-5): 22.99 and 24.60 and 25.55 and 30 .09 and 22.93
Ct value (neat DNA) Puritan ([13]; (+) periodate 30 mM, Swabs 1-5): 22.67 and 24.19 and 23.28 and 23.93 and 24.36
Periodate efficiency (Ct Swab 6 (−) Ct average) ([13]; neat DNA, Copan): 3.73
Periodate efficiency (Ct Swab 6 (−) Ct average) ([13]; neat DNA, Puritan): 3.93
increase in the amount of aMTB-specific DNA recovered per swab ([13]; periodate included vs not included): > 10 fold
% DNA Released ([14]; 35° C. 20 minutes): 49.7%
% DNA Released ([14]; 70° C. 20 minutes): 85.2%
% DNA Released ([14]; 80° C. 20 minutes): 80.6%
percentage of total DNA released ([15]; 6 mM NPI in PAB buffer solutions pH 3.7-9.4, 70° C. 20 minutes): 37.4-59.4%
increase of percentage of total DNA released vs no NPI ([15]; 6 mM NPI, 70° C. 20 minutes): approximately 9 fold
Ct values ([16]; 35° C. 20 minutes): 27.1
Ct values ([16]; 70° C. 20 minutes): 15.2
Ct values ([16]; 80° C. 20 minutes): 15.7
Ct values ([17]; 35° C. 20 minutes): 10.8
Ct values ([17]; 70° C. 20 minutes): 7.8
Ct values ([17]; 80° C. 20 minutes): 8.8
spore viability by culture [18]: no C. botulinum or C. difficile spores were viable by culture
% DNA Released ([19]; 35° C. 20 minutes): 65.3%
% DNA Released ([19]; 70° C. 20 minutes): 89.4%
% DNA Released ([19]; 80° C. 20 minutes): 92.0%
RNase A activity on HeLa ribosomal RNA [20]: ribosomal RNA was no longer degraded by RNase A
spore viability by culture [21]: no C. botulinum or C. difficile spores were viable by culture
Ct values ([22]; 35° C. 20 minutes): 24.3
Ct values ([22]; 70° C. 20 minutes): 9.3
Ct values ([22]; 80° C. 20 minutes): 9.6
% DNA release [2]: 46.6% and 48.0% and 37.4%
AUC, Ade [2]: 594 and 611 and 476
% DNA release (Average) [2]: 44.0%
AUC, Ade (Average) [2]: 560.3
% DNA release (Average) ([2]; listed as sodium (meta)periodate): 44%
Growth (up to 42 days) [23]: NEG
Time to Positive [23]: >42 days
growth on LJ medium [23]: no growth of any microorganism was observed
Ct values ([24]; 35° C. 20 minutes): 15.3
Ct values ([24]; 70° C. 20 minutes): 15.5
Ct values ([24]; 80° C. 20 minutes): 16.0
% DNA Released ([25]; 35° C. 20 minutes): 42.1%
% DNA Released ([25]; 70° C. 20 minutes): 103.5%
% DNA Released ([25]; 80° C. 20 minutes): 107.7%
Ct values ([26]; 35° C. 20 minutes): 22.8
Ct values ([26]; 70° C. 20 minutes): 18.1
Ct values ([26]; 80° C. 20 minutes): 17.9
Ct values ([27]; 35° C. 20 minutes): 16.3
Ct values ([27]; 70° C. 20 minutes): 12.7
Ct values ([27]; 80° C. 20 minutes): 10.8
protein bands in cell-free lysate [28]: some protein bands selectively decreased or disappeared altogether
spore viability by culture [29]: dramatically reduced the viability
% DNA Released ([30]; 35° C. 20 minutes): 18.4%
% DNA Released ([30]; 70° C. 20 minutes): 24.8%
% DNA Released ([30]; 80° C. 20 minutes): 26.7%

O=S(=O)([O-])OOS(=O)(=O)[O-].[Na+].[Na+] [Persulfate, sodium persulfate]
% DNA release [2]: 15.9% and 14.7% and 14.3%
AUC, Ade [2]: 202 and 187 and 182
% DNA release (Average) [2]: 15.0%
AUC, Ade (Average) [2]: 190.3
% DNA release (Average) ([2]; listed as sodium persulfate): 15%
